Test results taken from US8765803B1, “Rab7 GTPase inhibitors and related methods of treatment” (STC.UNM, priority 2011, dated 2014).
≈ marks a conversion by molar mass, not a printed value. Where “and” joins values, the source holds several entries; their conditions need not be identical. Equal values may be shown once. Read-outs that look alike come from different tables or passages of the source.

What was measured:
[1] = system: Ras-related GTPases (Cdc42 wt, Rac1wt, Rac1Q61L, Rab2 wt, Rab7 wt, and H-Ras wt); conditions: for Activity for all GTPases tested: multiplex GTPase screen; for Loss in potency across GTPases relative to CID1067700: compared across multiple/all GTPases
Experimental: The eight GTPases were grouped into two sets: Rab7, H-Ras wild type and its V12 mutant, and Cdc42 and its L61 mutant were assayed in a buffer containing 1 mM EDTA, while Rho, Rac1 and its L61 mutant, and Cdc42 and its L61 mutant were assayed in the same buffer but instead containing 1 mM Mg^2+ with Cdc42 and its mutant being tested in both buffers. Besides 1 mM EDTA or 1 mM Mg^2+, the buffer contained 30 mM HEPES, pH 7.5, 40 mM KCl, 100 mM NaCl, 0.1% (v/v) NP-40 and 1% BSA. For each multiplex reaction, an extra set of beads was included to serve as scavengers to bind any proteins that dissociate from their assigned bead set and thereby reduce interference due to protein dissociation during the assay. […] Briefly, each individual GST-tagged enzyme was incubated with 4 μm glutathione-coated microsphere beads overnight with gentle rotation. The microsphere beads have different red fluorescence dyes incorporated and therefore could be separated by a flow cytometer. The unbound enzyme was removed by sufficient washing with the buffer. The bead sets were then combined and dispensed to 384-well plates at 5 μL/well. For one plate, 0.5 μg each of the enzymes and 4.0×10^4 of each bead were used. Then 100 nL compound was added using Biomek FX followed by the addition of 5 μL/well of BODIPY-FL-GTP (ribose-linked BODIPY). […] The beads were aspirated and delivered with the HyperCyt® instrument and read on CyAnADP flow cytometer. Forward scatter and side scatter was used to define the whole bead population. […] The data was analyzed by the HyperView® software developed by Dr. Bruce Edward at the University of New Mexico.
Briefly, six sets of beads (each with a unique red fluorescence intensity) were individually coated with six representative GST-tagged Ras-related GTPases (Cdc42 wt, Rac1wt, Rac1Q61L, Rab2 wt, Rab7 wt, and H-Ras wt) (FIG. 29A). The individually conjugated beads were then assayed in the presence of individual compounds in the Molecular Libraries Small Molecule Repository using a HyperCyt flow cytometry to identify molecules that altered the binding of fluorescent nucleotide to Ras-family GTPases (36).

[2] = system: U937 cells; assay: Cytotoxicity of compounds, cell density and viability; format: cell-based; conditions: 24 h
Experimental: U937 cells were grown to a density of 0.4×10^6 cells/mL Compounds were added to a final concentration of 20 μM or otherwise indicated. As a control, cells were treated with DMSO of the same volume. After 24 h incubation, the density and viability of the cells were measured with Countess Cell Counter according to the protocols from the manufacturer.

[3] = Solubility in PBS and assay media, UV absorbance detection; format: physicochemical
Experimental: Solubility was measured in phosphate buffered saline (PBS) at room temperature (23° C.). PBS by definition is 137 mM NaCl, 2.7 mM KCl, 10 mM sodium phosphate dibasic, 2 mM potassium phosphate monobasic and a pH of 7.4. Detection was based on UV absorbance. […]. Solubility was also assessed in the each of the four media used in the individual assays. […]

[4] = molecular target: T1, Rab7 GTPase (UniProt P18067); assay: Multiplex bead-based flow cytometry dose-response, BODIPY-FL-GTP binding to GST-tagged GTPase; conditions: for EC50: mean of n replicates; for % Res: percent response
T1 construct: fused on or other part: GST tag, used to hold the protein on glutathione beads

[5] = molecular target: Rab7 wt; conditions: previously determined (ref 33); read-out: Equilibrium dissociation constant Kd for wild-type Rab7; cited from earlier work
[6] = 23 °C, pH 7.4, aqueous buffer, Solubility
[7] = Assay format EDTA (1 mM EDTA buffer, 100 nM BODIPY-FL-GTP)
[8] = Assay format Mg (1 mM Mg2+ buffer, 1 nM BODIPY-FL-GTP)
[9] = pH 7.5, aqueous with cosolvent or surfactant or cyclodextrin, Solubility

Molecule | Activity for all GTPases tested [1] | solubility [3] | solubility [3, 6] | solubility ([3]; pH 7.5) | solubility ([3]; pH 7.5, read-out: Solubility) | solubility ([3]; read-out: Solubility) | Cell viability of U937 cells after treatment ([2]; 20 μM) | EC50 [4, 7] | % Res ([4]; Assay format EDTA) | EC50 [4, 8] | % Res ([4]; Assay format Mg) | further results
CC1(C)Cc2c(sc(NC(=O)Cc3ccccc3)c2C(=O)O)CO1 [CID740871, 5,5-dimethyl-2-(2-phenylacetamido)-5,7-dihydro-4H-thieno[2,3-c]pyran-3-carboxylic acid] | complete loss of activity | – | – | – | – | – | – | – | – | – | – | Activity for all GTPases tested ([1]; listed as SID 9938117): inactive
COC(=O)c1c(NC(=S)NC(=O)c2ccccc2)sc2c1CC(C)(C)OC2 [CID1251121, Methyl 2-(3-benzoylthioureido)-5,5-dimethyl-5,7-dihydro-4H-thieno[2,3-c]pyran-3-carboxylate] | complete loss of activity | – | – | – | – | – | – | – | – | – | – | –
CC1(C)Cc2c(sc(NC(=S)Nc3ccccc3)c2C(=O)O)CO1 [CID1280844, 5,5-dimethyl-2-(3-phenylthioureido)-5,7-dihydro-4H-thieno[2,3-c]pyran-3-carboxylic acid] | inactive | – | – | – | – | – | – | – | – | – | – | –
CC1(C)Cc2c(sc(NC(=O)NC(=O)c3ccccc3)c2C(=O)O)CO1 [CID46916265, 2-(3-Benzoylureido)-5,5-dimethyl-5,7-dihydro-4H-thieno[2,3-c]pyran-3-carboxylic acid] | – | – | – | – | – | – | – | – | – | – | – | Cell viability of U937 cells after treatment ([2]; 100 μM): 98% (100 μM); Loss in potency across GTPases relative to CID1067700 [1]: 35 fold; Loss in potency across GTPases relative to CID1067700 ([1]; listed as SID 99381130): 7 fold
CC1(C)Cc2c(sc(NC(=S)NC(=O)c3ccccc3Br)c2C(=O)O)CO1 [CID53301931, 2-(3-(2-Bromobenzoyl)thioureido)-5,5-dimethyl-5,7-dihydro-4H-thieno[2,3-c]pyran-3-carboxylic acid] | – | >93 μg/mL, | > 93 µg/mL and > 198 µM | >93 μg/mL, | >198 µM | >198 µM | 94% | 430 ± 680 nM | 86 ± 10% | 650 ± 870 nM | 35 ± 4% | –
COc1cccc(C(=O)NC(=S)Nc2sc3c(c2C(=O)O)CC(C)(C)OC3)c1 [CID53301934, 2-(3-(3-Methoxybenzoyl)thioureido)-5,5-dimethyl-5,7-dihydro-4H-thieno[2,3-c]pyran-3-carboxylic acid] | – | 54.5 μg/mL, | 36.5 µg/mL and 86.8 µM | 29.7 μg/mL, | 70.6 µM (≈ 29.7 µg/mL) | 129.6 µM (≈ 54.5 µg/mL) | 94% | 150 ± 130 nM | 68 ± 25% | 320 nM | 37% | solubility [3, 9]: 33.8 µg/mL and 80.4 µM
CC1(C)CCc2sc(NC(=S)NC(=O)c3ccccc3)c(C(=O)O)c2C1 [CID53301937] | – | – | – | – | – | – | 91% | 66 ± 20 nM | 97 ± 5% | 63 ± 10 nM | 53 ± 1% | –
CC1(C)Cc2c(sc(NC(=S)NC(=O)c3ccc(F)cc3)c2C(=O)O)CO1 [CID53377405, 2-(3-(4-Fluorobenzoyl)thioureido)-5,5-dimethyl-5,7-dihydro-4H-thieno[2,3-c]pyran-3-carboxylic acid] | – | 67.6 μg/mL, | 85.7 µg/mL and 210 µM | 69.1 μg/mL, | 169.2 µM (≈ 69.1 µg/mL) | 165.5 µM (≈ 67.6 µg/mL) | 94% | 95 nM | 100% | 77 nM | 39% | solubility [3, 9]: 98.2 µg/mL and 240 µM
BODIPY FL GDP 2′-(or -3′)-O—[N-(2-aminoethyl)urethane] [BODIPY-GDP] | – | – | – | – | – | – | – | – | – | – | – | Kd [5]: 40 nM
BODIPY FL GTP 2′-(or 3′)-O—[N-(2-aminoethyl)urethane] [BODIPY-GTP] | – | – | – | – | – | – | – | – | – | – | – | Kd [5]: 100 nM
